5 molecules from patent EP1493444A1, “Pharmaceutical composition used as anti-infective of the upper respiratory tract” (priority 2003, dated 2005) can be followed below.

This data set deals with muqueuse. As to the kind of experiment: Comparative acute in vivo toxicity (mucosal irritation, C20). Set-up: species or system lapin. Conditions: for concentration théorique provoquant une irritation de la muqueuse moyenne identique (C20): rabbit, in vivo. The text has this: Enfin, une autre expérience a encore consisté à comparer la toxicité aiguë in vivo du polihexanide avec celle d'autres composés.
A cet effet, la toxicité du polihexanide a été comparée in vivo chez le lapin à celle du digluconate de chlorhexidine, et à celle de trois chlorures de benzyldiméthylalkylammonium.
Pour chacune des substances étudiées, une concentration théorique provoquant une irritation de la muqueuse moyenne identique (C20) a été déterminée.
Ces concentrations sont respectivement : • 0,25 g % pour le chlorure de benzalkonium • 0,28 g % pour le chlorure de benzyldiméthyldodecylammonium • 0,32 g % pour le chlorure de benzyldiméthylhexadecylanmonium • 0,54 g % pour le digluconate de chlorhexidine • 12,2 g % pour le polihexanide.
Ces valeurs montrent par conséquent, que le polihexanide est beaucoup moins toxique pour la muqueuse que les autres composés testés, puisque sa valeur C20 est 22 fois supérieure à celle de la chlorhexidine et 44 fois plus élevée que la valeur moyenne des chlorures de benzalkonium.

Consider polihexanide, for which the “concentration théorique provoquant une irritation de la muqueuse moyenne identique (C20)” value is given as 12,2 g %. For the same molecule, the “valeur C20 supérieure à celle de la chlorhexidine” value (ratio of C20 values, versus chlorhexidine) stood at 22 fois. In addition, the “valeur C20 plus élevée que la valeur moyenne des chlorures de benzalkonium” value (ratio of C20 values, versus the mean of the benzalkonium chlorides) was 44 fois.
Turning to `CCCCCCCCCCCC[N+](C)(C)Cc1ccccc1` [chlorure de benzyldiméthyldodecylammonium], the “concentration théorique provoquant une irritation de la muqueuse moyenne identique (C20)” value is 0,28 g %.
On to `[H]/N=C(\N/C(=N/[H])NCCCCCCNC(=N)NC(=N)Nc1ccc(Cl)cc1)Nc1ccc(Cl)cc1` [digluconate de chlorhexidine], for which the “concentration théorique provoquant une irritation de la muqueuse moyenne identique (C20)” value was 0,54 g %.
With `CCCCCCCCCCCCCCCC[N+](C)(C)Cc1ccccc1` [chlorure de benzyldiméthylhexadecylanmonium], the “concentration théorique provoquant une irritation de la muqueuse moyenne identique (C20)” value was 0,32 g %.
As for `CCCCCCCCCCCCC[N+](C)(C)Cc1ccccc1` [chlorure de benzalkonium], the “concentration théorique provoquant une irritation de la muqueuse moyenne identique (C20)” value is reported as 0,25 g %.
